In patent US20230285498A1, “TREATMENTS FOR CANCERS HAVING KRAS MUTATIONS” (City of Hope, priority 2020, published 2023):
pIC50: −log10 of the molar value. Like-named read-outs stand apart in the source and are kept apart here.

Experiments:
SW1573 [1] = assay: Cell proliferation assay, 2D (IncuCyte live cell imaging); assay type: cell-based; conditions: SW1573
Experimental: The cells were seeded at density of 10000 cells/well 12 hours prior to the experiment. Once the cells attached to the plate the media was removed and the drugs were added to the cells. […] Cell proliferation was observed using the IncuCyte Live Imaging System for 72 hrs.
Knockdown of ITGB4 (Cat #SR302473C) at the mRNA level in the SW1573 cells was done using siRNAs purchased from OriGene Technologies (Rockville, Md., USA). JetPRIME transfection reagent (Polyplus Transfection, Illkirch, France) was used to transfect the siRNAs according to the manufacturer's protocol. Cells were seeded in 6-well plates (200,000 cells/well) and allowed to adhere overnight. Next day, 10 nM siRNA was transfected with 4 μl jetPRIME reagent in complete growth medium for each well. Next day cells were trypsinized, counted and re-plated on the 96 well plate for cell proliferation and drug assay. […] Cell growth medium was changed the next day and expression was detected 72 h post-transfection by immunoblotting.
(§1) The cells grown in 2D cultures were treated with various concentrations of the drug, and the effect on cell proliferation was determined in real time using the live cell proliferation assay (IncuCyte, Essen Bioscience, Inc.) as described in the methods.
(§2) Cell proliferation and apoptosis assay: Cell proliferation assays were performed using cell lines stably transfected with NucLight Red Lentivirus (Essen BioScience) to accurately visualize and count the nucleus of a single cell. Cells were seeded on a 96-well plate and allowed to adhere for 24 h. Test compounds were added at indicated concentrations. Caspase-3/7 Green Apoptosis Reagent (Essen BioScience) was also added as a green fluorescent indicator of caspase3/7-mediated apoptotic activity. To monitor cell proliferation and apoptosis over time, the plate was placed in the IncuCyte S3 Live Cell Imaging System (Essen BioScience) and images were acquired every 2 hours. Data analysis was generated by the IncuCyte software using a red fluorescence mask to accurately count each cell nucleus and a green fluorescence mask to measure apoptosis over time. 3D spheroid assay 3D spheroid experiments were performed using cell lines stably transfected with NucLight Red Lentivirus (Essen BioScience) to visualize red fluorescence as an indicator of cell viability. Cells were seeded on a 96-well ultra-low attachment plate and allowed to form spheroids overnight. Drug treatment was added as indicated along with Cytotox Green Reagent (Essen BioScience), used as a green fluorescence indicator of cell death due to loss of cell membrane integrity. To monitor cell proliferation and apoptosis over time, the plate was placed in the IncuCyte S3 Live Cell Imaging System (Essen BioScience) and images were acquired every 2 hours. Data analysis was generated by the IncuCyte software using a red fluorescence mask to accurately measure intensity and area of red fluorescence, indicating spheroid viability and a green fluorescence mask, indicating cell death. Cell cycle analysis.

SW1573 spheroids = assay: 3D spheroid assay; assay type: cell-based; conditions: SW1573
Experimental: (§3) The activation of apoptosis is marked with the increase in green fluorescence intensity.
(§4) To determine the sensitivities of the same cells in 3D, mKate expressing cells were used to generate spheroids. Spheroids were monitored in real time using the IncuCyte live cell imaging system (FIG. 1B).
as §2

H23 spheroids = assay: 3D spheroid assay; assay type: cell-based; conditions: H23
Experimental: as §3, §4, §2

H358 spheroids = assay: 3D spheroid assay; assay type: cell-based; conditions: H358
Experimental: as §3, §4, §2

H358 = assay: Cell proliferation assay, 2D (IncuCyte live cell imaging); assay type: cell-based; conditions: H358
Experimental: as §1, §2

H23 = assay: as above; assay type: cell-based; conditions: H23
Experimental: as §1, §2

SW1573 NSCLC cells = assay: Mouse SW1573 xenograft; assay type: in vivo, Athymic nude nu/nu mice
Experimental: Mouse xenograft studies. Athymic nude nu/nu mice were obtained from Charles River, Wilmington, Mass., and were acclimated for a week before beginning the experiment. All animal experiments were carried out in accordance with a protocol approved by the Institutional Animal Care and Use Committee (IACUC #16004). […] All 40 animals were injected with 1×10^6 SW1573 cells suspensions in 100 μl of PBS, subcutaneously into one flank of each mouse. At the same time, animals were randomized into treatment groups. Treatment was started 12 days after the SW1573 NSCLC cells implantation to see palpable tumor growth. Treatments were given to mice via oral gavage twice a week for 8 weeks. Animals were examined daily for signs of tumor growth. Tumors were measured in two dimensions using calipers and body weights were recorded. Photographs of animals were taken at day 1, day 7, day 14, day 21, day 28, day 35, day 42, day 49, and day 56 after treatment. Photographs of tumors were also taken at day 56 after treatment. At the end of the study, the mice were euthanized by CO2 asphyxiation followed by cervical dislocation. The tumor weights were compared between groups using an unpaired Student's t-test. A portion of the tumor was fixed in 10% buffered formaldehyde solution and paraffin-embedded for immuno-staining or was snap-frozen in liquid nitrogen for further molecular analysis such as western blotting.

SW1573 cells = assay: Zebrafish larvae SW1573 xenotransplant; assay type: in vivo
Experimental: The inventors microinjected SW1573 cells into the perivitelline space of 48 hour post-fertilization (hpf) zebrafish larvae.

H23 cells = assay: Zebrafish larvae H23 xenotransplant; assay type: in vivo; conditions: sotorasib 12 μM, adagrasib 2 μM, carfilzomib 1.6 mM as printed; Day 3
[2] = tested on: cisplatin-refractory KRAS mutant NSCLC cells; assay: Sensitization of cisplatin-refractory cells; assay type: cell-based; conditions: read-out: IC50 to sensitize cisplatin-refractory KRAS mutant NSCLC cells
Experimental: Furthermore, treating NSCLC cell lines that express high levels of ITGB4 and PXN (H358 and H2009) were treated with carfilzomib, H358 cells carrying the KRAS G12C mutation were more sensitive than H2009 cells harboring the G12A mutation. […] Taken together, these observations indicate that treating patients with carfilzomib in addition to targeting mutant KRAS will be more efficacious than carfilzomib treatment alone.

SW1573 [3] = assay: Drug combination synergy assay (inhibition matrix); assay type: cell-based; conditions: Homo sapiens
Experimental: The synergy finder codes were used to determine the synergy between drugs for 48 possible combinations. The codes were run using the R-platform and synergy was calculated and represented as the synergy landscape.
Drug Combination Synergy Assay: For combination index (CI) calculation, SW1573 and H23 incured cell lines were seeded in 96-well plate with 5000 cells per well. Three biological replicates (three 96-well plates for each drug combination) were used. […] The drugs were used in linear dilution series with dilution factor of 2. […] Further, R package called SynergyFinder (He et al., 2018) was used to find the nature of drug-drug interaction (i.e. if they work in synergy or antagonistically or non-interactively). For this purpose, the drug response matrix is supplied to the mentioned package, which then uses several models namely Highest Single Agent (Berenbaum, 1989), Loewe additivity (Loewe, 1953), Bliss independence (Bliss, 1939) and Zero Interaction Potency (Yadav et al., 2015) to quantify the degree of drug synergy. The dose response matrix was used to calculate individual CI values for IC30, IC50 and IC70 drug treatments. The output values were used to plot isobolograms using the following formula. CI=IC50 (A) pair IC50 (A)+IC50 (B) pair IC50 (B)

For `C=CC(=O)N1CCN(c2ncnc3c(F)c(-c4c(O)cccc4F)c(Cl)cc23)CC1` [ARS1620, (S)-1-(4-(6-chloro-8-fluoro-7-(2-fluoro-6-hydroxyphenyl)quinazolin-4-yl)piperazin-1-yl)prop-2-en-1-one], the inhibition at 10 µM (SW1573 [1]; Homo sapiens, 10 μM, 72 hours, read-out: inhibition of proliferation / cell growth) was 20%, the pIC50 (SW1573 [1]; Homo sapiens, 72 hours, Example 6) was less than 5.00 and the inhibition at 10 µM (SW1573 spheroids; Homo sapiens, 10 μM, read-out: inhibition of spheroid area / reduction in spheroid growth) was roughly 25%. For the same molecule, the “reduction of spheroid mean red intensity” value (SW1573 spheroids; 5 μM) was 40%, the “reduction of spheroid mean red intensity” value (H23 spheroids; 5 μM) was 50% and the “reduction in spheroid growth” value (H23 spheroids; 10 μM) was 70%. The “reduction of spheroid mean red intensity” value (H358 spheroids; 5 μM) was 80%, the “reduction in spheroid growth” value (H358 spheroids; 10 μM) was 70% and the “inhibition of cell growth” value (H358; 2.5, 5 or 10 μM) was 50%. The inhibition at 1.2 µM (H358; Homo sapiens, NCI-H358, 1.2 μM, 72 hours, read-out: inhibition of cell growth) was 40%, the “inhibition of cell growth” value (H23; at 1.2 (unit not given)) was 30% and the inhibition at 5 µM (H23; Homo sapiens, NCI-H23, 5 μM, read-out: inhibition of cell growth) was 50%. For the same molecule, the inhibition at 10 µM (H23; Homo sapiens, NCI-H23, 10 μM, 72 hours, read-out: inhibition of proliferation / cell growth) was 80% and the pIC50 (H23; Homo sapiens, NCI-H23, 72 hours, Example 6) was 5.12.

For `C=C(F)C(=O)N1CCN(c2nc(OC[C@@H]3CCCN3C)nc3c2CCN(c2cccc4cccc(Cl)c24)C3)C[C@@H]1CC#N` [adagrasib], the “better viability compared to untreated spheroids” value (SW1573 spheroids; 0.6 μM) was 50%, the “spheroids inviable (red mean intensity, last time point)” value (H23 spheroids; 0.6 μM) was 40% and the “spheroids inviable (red mean intensity, last time point)” value (H358 spheroids; 0.6 μM) was 80%.

In the case of `CC(C)C[C@H](NC(=O)[C@H](CCc1ccccc1)NC(=O)CN1CCOCC1)C(=O)N[C@@H](Cc1ccccc1)C(=O)N[C@@H](CC(C)C)C(=O)[C@@]1(C)CO1` [carfilzomib], the “effect on cell growth” value (SW1573 [1]; 20 nM) was “slows cell growth”, the “tumor weight compared to control group” value (SW1573 NSCLC cells; end of study (day 56)) was “significant reduction in tumor weight” and the “reduction in tumor area” value (SW1573 NSCLC cells; sotorasib 10 mg/kg, adagrasib 10 mg/kg, carfilzomib 2 mg/kg, oral gavage twice a week, day 56) was roughly 56%. The “most effective dose, drug alone (obliterates SW1573 cells)” value (SW1573 cells) was 1.6 µM, the “reduction of tumor growth (median)” value (H23 cells) was roughly 82% and the pIC50 [2] was 9.10. The inhibition at 0.01 µM (SW1573 [3]; carfilzomib 10 nM, 72 hours, read-out: inhibition of growth) was 60%.

In the case of `C[C@@H]1C[C@H](C)CN(S(=O)(=O)c2ccc3c(c2)C(=NO)c2cc(S(=O)(=O)N4C[C@H](C)C[C@H](C)C4)ccc2C3=NO)C1` [tegatrabetan], the inhibition at 0.01 µM (SW1573 [3]; tegatrabetan 10 nM, read-out: inhibition of cell growth) was 10%.
